Experimental data as given in the Kinase Knowledgebase extract (Sharma et al. 2016).

biological target: ROCK2 (human) (UniProt O75116); assay: Inhibition of ROCK2 Kinase Activity
Sequence (O75116 whole entry, looked up): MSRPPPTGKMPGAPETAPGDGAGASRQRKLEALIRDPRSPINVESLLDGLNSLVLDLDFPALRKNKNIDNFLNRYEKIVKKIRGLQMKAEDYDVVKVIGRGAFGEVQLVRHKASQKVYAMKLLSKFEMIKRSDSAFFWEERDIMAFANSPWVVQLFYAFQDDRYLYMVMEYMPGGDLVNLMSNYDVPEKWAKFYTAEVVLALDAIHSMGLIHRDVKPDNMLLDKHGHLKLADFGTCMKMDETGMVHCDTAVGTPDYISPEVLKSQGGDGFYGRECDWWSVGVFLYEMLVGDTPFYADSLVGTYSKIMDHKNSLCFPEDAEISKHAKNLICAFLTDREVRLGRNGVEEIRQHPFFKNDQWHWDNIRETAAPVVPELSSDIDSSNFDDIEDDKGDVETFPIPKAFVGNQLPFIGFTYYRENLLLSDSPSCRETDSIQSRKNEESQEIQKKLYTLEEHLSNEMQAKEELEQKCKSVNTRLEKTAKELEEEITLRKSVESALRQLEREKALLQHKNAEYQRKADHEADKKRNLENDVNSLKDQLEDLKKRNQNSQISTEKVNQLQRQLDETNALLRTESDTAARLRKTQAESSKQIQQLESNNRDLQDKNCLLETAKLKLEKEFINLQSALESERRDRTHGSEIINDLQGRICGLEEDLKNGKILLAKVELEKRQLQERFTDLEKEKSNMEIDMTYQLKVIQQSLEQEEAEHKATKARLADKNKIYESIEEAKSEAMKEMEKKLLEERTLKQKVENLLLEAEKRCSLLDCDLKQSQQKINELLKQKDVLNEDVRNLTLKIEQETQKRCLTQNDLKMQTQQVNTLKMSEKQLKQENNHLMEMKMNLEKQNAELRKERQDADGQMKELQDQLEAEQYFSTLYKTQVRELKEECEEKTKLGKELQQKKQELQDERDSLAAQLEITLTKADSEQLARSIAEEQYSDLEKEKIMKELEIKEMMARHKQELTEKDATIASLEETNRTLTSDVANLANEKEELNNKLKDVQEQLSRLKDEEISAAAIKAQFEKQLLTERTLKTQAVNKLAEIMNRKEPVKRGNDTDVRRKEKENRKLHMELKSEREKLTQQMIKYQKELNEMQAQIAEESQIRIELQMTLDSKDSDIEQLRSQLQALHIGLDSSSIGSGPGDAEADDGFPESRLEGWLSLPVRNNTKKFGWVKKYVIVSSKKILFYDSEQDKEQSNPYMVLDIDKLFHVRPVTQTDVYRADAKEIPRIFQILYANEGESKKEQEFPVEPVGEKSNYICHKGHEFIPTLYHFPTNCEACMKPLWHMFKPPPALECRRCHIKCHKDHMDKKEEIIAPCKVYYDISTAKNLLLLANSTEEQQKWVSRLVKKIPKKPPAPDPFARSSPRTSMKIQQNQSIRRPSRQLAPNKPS

| SMILES | IC50 [nM] |
| --- | --- |
| Clc1cc(OC2CCNCC2)cc2ccncc12 | ≤ 1000 |
| Brc1c(OC2CCNCC2)ccc2cnccc12 | ≤ 1000 |
| Clc1cc2cnccc2c(Cl)c1OC1CCNCC1 | ≤ 1000 |
| CN1CCCC(COc2ccc3cnccc3c2Br)C1 (stereo not drawn) | ≤ 1000 |
| Cc1cc(OC2CCNCC2)c(C)c2ccncc12 | ≤ 1000 |
| Clc1cncc2ccc(OC3CCNCC3)cc12 | ≤ 1000 |
| c1cc2c(cc1Nc1cc3cc(OC4CCNCC4)ccc3cn1)OCO2 | ≤ 1000 |
| Ic1c(OC2CCNCC2)ccc2cnccc12 | ≤ 1000 |
| c1ccc(-c2cc3cnccc3cc2OC2CCNCC2)cc1 | ≤ 1000 |
| c1ccc2oc(-c3c(OC4CCNCC4)ccc4cnccc34)cc2c1 | ≤ 1000 |
| COc1ccc(-c2c(OC3CCNCC3)ccc3cnccc23)cc1N | ≤ 1000 |
| COc1ccc2cc(CN3CCC(Oc4ccc5cnccc5c4)CC3)ccc2c1 | ≤ 1000 |
| COc1cc(Nc2cc3cc(OC4CCNCC4)ccc3cn2)cc(OC)c1OC | ≤ 1000 |
